Data: patent US6827926B2, “Metallotetrapyrrolic photosensitizing agents for use in photodynamic therapy” (Miravant Pharmaceuticals, Inc., priority 2001, dated 2004)
pEC50: −log10 of the molar value. Like-named read-outs stand apart in the source and are kept apart here.

How the values were obtained:
[1] = tested on: V79 (Chinese Hamster Lung Fibroblasts) cells; assay: In vitro cytotoxicity assay (light EC50, Alamar blue); assay type: cell-based
Procedure, shortened: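 V79 cells in phenol-free 5% FBS/DMEM exposed 24 h to photosensitizer at final 0.01–5.0 μM, six replicates, then washed and light-treated, with a dark plate as control. Survival by Alamar blue after 24 h dark incubation, read at 570/600 nm.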

[2] = tested on: normal skin of CD Hairless male rats; assay type: in vivo, rat
Procedure, shortened: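 Liposomal egg yolk phospholipid photosensitizer given as single i.v. tail-vein bolus at 1, 1.5 and 2 μmol/kg; skin spots irradiated with 532 nm laser (150 mW/cm^2, 150J, 1 cm) at 1, 6, 24, 48, 96 hrs post injection. Value is time of last observed skin response spot.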

[3] = tested on: normal uninjured rat carotid arteries (medial and adventitial cell populations); assay: In vivo rat carotid artery acellularity after PDT; set-up: species or system Sprague Dawley rats; settings: for Max % rat Artery Accelularity: Table 3; for Max % Rat Artery Accelularity: Table 4, 575 nm (Pt 532 nm)
Procedure, shortened: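 Metallated photosensitizers light-activated in normal uninjured rat left common carotid via balloon catheter introduced through femoral arteriotomy under isoflurane; excitation 575 nm (Ga, Zn, Al, Sn) or 532 nm (Pt). Arteries harvested 3 days post-treatment, H&E-stained; medial and adventitial cell density assessed by light microscopy.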

[4] = Table 3 porphyrins, 24 h drug incubation, 532 nm, 1.25 J/cm^2, read-out: In Vitro EC50 Light
[5] = drug dose 1 μMol, 50 J/cm^2, 3 days post treatment
[6] = Table 4 azaporphyrins, 575 nm (Pt azaporphyrins 532 nm), 1.25 J/cm^2, read-out: In Vitro EC(50)

Row | SMILES | pEC50 [1, 4] | Normal skin Response (1 μmol) ([2]; rat, in vivo) [h] | Max % rat Artery Accelularity [3, 5] [%] | other results
1 | CCOC(=O)CCCCC1=C(C)C2=Cc3c(CC)c(C)c4[n]3[Al-2]35([Cl])[n]6c(c(C)c(CCCCC(=O)OCC)c6=CC1=[N+]23)=CC1=[N+]5C(=C4)C(CC)=C1C [Example 54, Aluminum Chloride 8,13-diethyl-3,7,12,17-tetramethylporphyrin-2,18-di(pentanoic acid ethyl ester)] | 5.40 | 24 | 0 | 
2 | CCOC(=O)CCCCC1=C(C)C2=Cc3c(CC)c(C)c4[n]3[Zn-2]35[n]6c(c(C)c(CCCCC(=O)OCC)c6=CC1=[N+]23)=CC1=[N+]5C(=C4)C(CC)=C1C (stereo not drawn) [Example 55, Zinc 8,13-diethyl-3,7,12,17-tetramethylporphyrin-2,18-di(pentanoic acid ethyl ester)] | 5.40 | 24 | 0 | 
3 | CCCOC(=O)CCCCC1=C(C)C2=Cc3c(CC)c(C)c4[n]3[Ga-2]35([Cl])[n]6c(c(C)c(CCCCC(=O)OCCC)c6=CC1=[N+]23)=CC1=[N+]5C(=C4)C(CC)=C1C [Example 56, Gallium Chloride 8,13-diethyl-3,7,12,17-tetramethylporphyrin-2,18-di(pentanoic acid propyl ester)] | 6.40 | 24 | 75 | 
4 | CCC1=C(C)c2cc3[n-]c(cc4nc(cc5[n-]c(cc1n2)c(C)c5CC)C(C)=C4CCCCC(=O)OC)c(CCCCC(=O)OC)c3C.[Cl-].[Ga+3] [Example 57, Gallium Chloride 8,13-diethyl-3,7,12,17-tetramethylporphyrin-2,18-di(pentanoic acid methyl ester)] | 6.34 | 6 | 80 | factor of decrease of normal skin response / skin clearance time versus the parent methyl ester ([2]; rat, in vivo): 8; acellularity (rat artery) ([3]; text b234, 1 μmol/Kg (printed 1 mol/Kg for 57)): 80%
5 | CCC1=C(C)C2=[N+]3C1=Cc1c(C)c(CC)c4[n]1[Sn-2]31([Cl])([Cl])[n]3c(c(C)c(CCC(=O)NC)c3=CC3=[N+]1C(=C4)C(C)=C3CCC(=O)NC)=C2 [Example 58, Tin(IV)dichloride Mesoporphyrin N-methylamide] | 5.92 | 24 | 10 | 
6 | CCC1=C(C)C2=[N+]3C1=Cc1c(C)c(CC)c4[n]1[In-2]31([Cl])[n]3c(c(C)c(CCC(=O)NC)c3=CC3=[N+]1C(=C4)C(C)=C3CCC(=O)NC)=C2 [Example 59, Indium Chloride Mesoporphyrin N-methylamide] | 6.77 | 48 | 60 | 
7 | CCC1=C(C)C2=[N+]3C1=Cc1c(C)c(CC)c4[n]1[Pt-2]31[n]3c(c(C)c(CCC(=O)NC)c3=CC3=[N+]1C(=C4)C(C)=C3CCC(=O)NC)=C2 (stereo not drawn) [Example 60, Platinum Mesoporphyrin N-methylamide] | 6.92 | 96 | 25 | 
8 | CCC1=C(C)C2=[N+]3C1=Cc1c(C)c(CC)c4[n]1[Zn-2]31[n]3c(c(C)c(CCC(=O)N(CC)CC)c3=CC3=[N+]1C(=C4)C(C)=C3CCC(=O)N(CC)CC)=C2 (stereo not drawn) [Example 62, Zinc Mesoporphyrin N,N-diethylamide] | 5.40 | 24 | 0 | 
9 | CCC1=C(C)c2cc3[n-]c(cc4nc(cc5[n-]c(cc1n2)c(C)c5CC)C(C)=C4CCCO)c(CCCO)c3C.[Cl-].[In+3] [Example 72, Indium Chloride 8,13-diethyl-3,7,12,17-tetramethylporphyrin-2,18-di(3′-hydroxypropyl)] | 7.40 | 96 |  | Max % rat Artery Accelularity ([3]; drug dose 0.5 μMol): 40%
10 | CCC1=C(C)c2cc3[n-]c(cc4nc(cc5[n-]c(cc1n2)c(C)c5CC)C(C)=C4CCCO)c(CCCO)c3C.[Pt+2] [Example 74, Platinum 8,13-diethyl-3,7,12,17-tetramethylporphryin-2,18-di(3′-hydroxypropyl)] | 7.00 | 24 | 25 | 
11 | CCC1=C(C)c2cc3[n-]c(cc4nc(cc5[n-]c(cc1n2)c(C)c5CC)C(C)=C4CCCOC)c(CCCOC)c3C.[Cl-].[In+3] [Example 75, Indium Chloride 8,13-diethyl-3,7,12,17-tetramethylporphyrin-2,18-di(3′-methoxypropyl)] | 7.22 | 96 | 75 | 
12 | CCC1=C(C)c2cc3[n-]c(cc4nc(cc5[n-]c(cc1n2)c(C)c5CC)C(C)=C4CCCN1CCCC1)c(CCCN1CCCC1)c3C.[Pt+2] [Example 77, Platinum 8,13-diethyl-3,7,12,17-tetramethylporphyrin-2,18-di(3-(N-pyrrolidino)propyl)] | 7.00 |  | 25 | Normal skin Response (1 μmol) ([2]; Table 3, time of last skin spot observed post injection, 1 μmol, 532 nm laser): 96 h
13 | CCC1=C(C)C2=[N+]3C1=Cc1c(C)c(CC)c4[n]1[Ga-2]31([OH])[n]3c(c(C)c(CCCNCCCO)c3=CC3=[N+]1C(=C4)C(C)=C3CCCNCCCO)=C2 [Example 78, Gallium Hydroxy 8,13-diethyl-3,7,12,17 tetramethylporphyrin-2,18-di((N-3′-hydoxypropyl)-3-aminopronpyl)] | 6.00 | 6 |  | Max % rat Artery Accelularity ([3]; drug dose 2 μMol): 10%
14 | CCC1=C(CC)C2=[N+]3C1=Nc1c(CC)c(CC)c4[n]1[Sn-2]31([Cl])([Cl])[n]3c(c(C)c(CCC(=O)OC)c3=CC3=[N+]1C(=C4)C(C)=C3CCC(=O)OC)=C2 [Example 82, Tin(IV)dichloride 7,8,12,13-tetraethyl-12,17-dimethyl-10-azaporphyrin-2,18-di(propionic acid methyl ester)] |  | 96 |  | pEC50 [1, 6]: 6.40; Max % Rat Artery Accelularity ([3]; drug dose 1 μMol): 30%
15 | CCC1=C(CC)C2=[N+]3C1=Nc1c(CC)c(CC)c4[n]1[In-2]31([Cl])[n]3c(c(C)c(CCC(=O)OC)c3=CC3=[N+]1C(=C4)C(C)=C3CCC(=O)OC)=C2 [Example 83, Indium Chloride 7,8,12,13-tetraethyl-12,17-dimethyl-10-azaporphyrin-2,18-di(propionic acid methyl ester)] |  | 48 |  | pEC50 [1, 6]: 7.52; Max % Rat Artery Accelularity ([3]; drug dose 1 μMol): 50%
16 | CCC1=C(CC)C2=[N+]3C1=Nc1c(CC)c(CC)c4[n]1[Ga-2]31([Cl])[n]3c(c(C)c(CCC(=O)O)c3=CC3=[N+]1C(=C4)C(C)=C3CCC(=O)O)=C2 [Example 87, Gallium Chloride 7,8,12,13-tetraethyl-12,17-dimethyl-10-azaporphyrin-2,18-di(propionic acid)] |  | 24 |  | pEC50 [1, 6]: 6.51; accelularity in rat artery at a four hour treatment point ([3]; 4 hrs post administration): 30%; Max % Rat Artery Accelularity ([3]; drug dose 1 μMol): 30%
17 | CCOC(=O)CCC1=C(C)C2=Cc3c(CC)c(CC)c4[n]3[Ga-2]35([Cl])[n]6c(c(C)c(CCC(=O)OCC)c6=CC1=[N+]23)=CC1=[N+]5C(=N4)C(CC)=C1CC [Example 89, Gallium Chloride 7,8,12,13-tetraethyl-12,17-dimethyl-10-azaporphyrin-2,18-di(propionic acid ethyl ester)] |  | 24 |  | pEC50 [1, 6]: 6.40; Max % Rat Artery Accelularity ([3]; drug dose 1 μMol): 60%
